According to patent US11766434B2, “Pyrimidinone derivatives as CDC7 inhibitors” (Cancer Research Technology Limited, priority 2016, dated 2023):

Assays:
Cdc7 = Cdc7 (Homo sapiens, UniProt O00311); assay: Cdc7 cell pharmacodynamics assay Method 1: pS53MCM2 levels in HCT116 cells; type: cell-based; design: endogenous in cells; conditions: 6 hours treatment, read-out: Biomarker Method 1 (pEC50) (converted)
Text: This protocol describes a method to investigate the inhibition of Cdc7 activity of compounds by measuring pS53MCM2 levels in cells after treatment.
• HCT116 cells (wild type P53 positive) • McCoys 5A media (PAA Laboratories Ltd, E15-022) • 10% FCS (Sera Laboratories International Ltd, EU000F Batch: 108005) • 100× L-Glutamine (Invitrogen, 25030-024) • D-PBS without CaCl2 and MgCl2 (Invitrogen, ref. 14190-094) • Trypsin/EDTA (Invitrogen 25300-054) • 2% BSA in PBS • Cell Extraction Buffer (Invitrogen FNN0011) • Protease inhibitor cocktail (Sigma P-2714) • PMSF 0.3M stock in DMSO (Sigma P7626) • Antibody—rabbit pMCM2 Ser53 (Bethyl #A300-756A) • Antibody—goat MCM2 (Bethyl #A300-122A) • Antibody—goat Anti Rabbit IgG HRP (Perbio Science UK Ltd 31462) • 1×PBS • FACE Wash buffer (0.02% Triton X100 in 1×PBS) • SuperSignal ELISA Pico Chemiluminescent Substrate (Perbio Science UK Ltd 37070) Method • 72 hours prior to the start of the experiment plate 1×10^6 HCT116 cells in a 150 cm^2 flask in complete McCoys 5A media (+10% FCS+1× L-glutamine). • Plate 20,000 HCT116 cells per well in standard TC treated 96 well plate in 100 μL complete McCoys 5A media. • Allow cells to settle overnight in incubator set at 37° C. and 5% CO2. • Remove intermediate plate from fridge and place at 37° C. overnight to allow to equilibrate. • Cell treatment: cell assay plate 100 μL; daughter to cell transfer volume 3.33 μL; daughter volume 45 μL; mother plate to daughter volume 5 μL. • Once all cells are treated remove the cells to the incubator and incubate for 6 hours. • Dilute the capture antibody (total MCM2 #A300-122A) 1 in 250 in the required volume of PBS (5 mL per assay plate) and add 50 μL to each well of a Hybond plate excluding wells 12E to 12H. In these wells add 50 μL PBS. Seal the plate and incubate at room temperature fora minimum of 2 hours. • Defrost aliquot of Invitrogen Cell Extraction Buffer (FNN0011) on ice and supplement with appropriate volume of both Sigma protease inhibitor cocktail (P-2714) and PMSF (final cone 1 mM from a […] in DMSO). • After the 6 hour cell treatment time tap out the media from the assay plates and place them in the −70° C. freezer for at least 5 minutes. • Remove plates from freezer and add 20 μL of ice cold complete lysis buffer on ice. Incubate cells for 30 minutes at 4° C. • Add 80 μL per well 2% BSA. • Transfer 80 μL from the lysis plate to the same wells in the capture/ELISA plate. Cover with plate seal and incubate plates overnight at 4° C. • Wash plates with PBS, remove any residual remaining liquid and add 50 μL per well of pMCM2 Ser53 antibody (#A300-756A) diluted 1 in 100 in 2% BSA. Cover plate and incubate at room temperature for 2 hours with gentle shaking. • Wash plates with PBS, remove any residual remaining liquid and Incubate with 50 μL goat anti rabbit antibody (1 in 800 dilution in 2% BSA) for 1 hour at room temperature. • Wash plates with PBS, remove any residual remaining liquid and add 50 μL mixed SuperSignal Pico substrate. • Incubate each plate for 5 minutes at room temperature shielding the plates from direct light (with a cover plate). Read plates with the luminescent detection. Method 2

Cdc7/ASK = Cdc7/ASK (Homo sapiens, UniProt O00311); assay: Cdc7 biochemical assay Method 1: 384 well ELISA, MCM2 whole protein substrate, Phospho MCM2 (S53) antibody; design: purchased; conditions: ATP 2 μM, 90 minutes, read-out: Biochemical method 1 (pIC50) (converted)
Chain of Cdc7/ASK (O00311 whole entry): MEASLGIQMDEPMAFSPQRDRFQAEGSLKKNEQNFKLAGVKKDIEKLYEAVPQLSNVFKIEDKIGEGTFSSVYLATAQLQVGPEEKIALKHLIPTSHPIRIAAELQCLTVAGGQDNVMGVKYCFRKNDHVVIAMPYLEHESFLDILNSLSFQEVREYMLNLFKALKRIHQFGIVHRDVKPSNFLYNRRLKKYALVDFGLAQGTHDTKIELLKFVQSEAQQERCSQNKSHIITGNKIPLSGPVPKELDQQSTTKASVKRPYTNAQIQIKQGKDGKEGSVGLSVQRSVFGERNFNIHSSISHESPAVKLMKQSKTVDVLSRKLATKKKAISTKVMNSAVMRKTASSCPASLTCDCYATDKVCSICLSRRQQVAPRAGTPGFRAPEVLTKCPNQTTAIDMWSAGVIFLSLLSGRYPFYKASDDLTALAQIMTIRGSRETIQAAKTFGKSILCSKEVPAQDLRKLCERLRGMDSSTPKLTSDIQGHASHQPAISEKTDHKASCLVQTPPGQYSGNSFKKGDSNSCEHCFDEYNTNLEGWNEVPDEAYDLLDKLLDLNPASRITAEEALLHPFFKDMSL
Chain of Cdc7/ASK (Q9UBU7 whole entry partner): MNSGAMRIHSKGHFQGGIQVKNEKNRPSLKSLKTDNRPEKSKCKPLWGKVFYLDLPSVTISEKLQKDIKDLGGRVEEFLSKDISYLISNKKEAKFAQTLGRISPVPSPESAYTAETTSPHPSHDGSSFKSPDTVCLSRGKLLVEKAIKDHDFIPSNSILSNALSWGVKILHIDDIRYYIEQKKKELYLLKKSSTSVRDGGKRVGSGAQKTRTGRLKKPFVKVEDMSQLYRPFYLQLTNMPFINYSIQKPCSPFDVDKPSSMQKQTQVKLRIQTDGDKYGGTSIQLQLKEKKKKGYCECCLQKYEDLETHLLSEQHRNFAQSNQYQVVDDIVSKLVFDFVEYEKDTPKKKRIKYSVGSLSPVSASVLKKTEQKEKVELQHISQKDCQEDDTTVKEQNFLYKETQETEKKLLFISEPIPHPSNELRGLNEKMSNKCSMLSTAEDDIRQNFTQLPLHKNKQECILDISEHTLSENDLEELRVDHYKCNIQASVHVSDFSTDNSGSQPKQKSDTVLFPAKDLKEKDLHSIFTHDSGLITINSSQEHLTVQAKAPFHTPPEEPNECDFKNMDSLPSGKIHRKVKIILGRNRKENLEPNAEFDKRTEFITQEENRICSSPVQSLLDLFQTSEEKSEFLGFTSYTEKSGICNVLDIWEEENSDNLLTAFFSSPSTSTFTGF
Experimental: This protocol describes a method for assaying Cdc7/ASK for activity. The assay is a 384 well ELISA assay, utilising a whole protein substrate (MCM2) and an antibody against Phospho MCM2 (S53). This site is thought to be specific to Cdc7/ASK phosphorylation and the assay has been validated using knockout mutants.
• TBS: 25 mM Tris pH 7.2, 150 mM NaCl. (Dilute 10× stock by 1:10). • Wash Buffer: TBS+0.05% Tween 20. (Add 100 mL 1 M Tris pH 7.2, 120 mL 5 M NaCl and 2 mL 100% Tween 20 per 4 L). • Kinase Reaction Buffer: 50 mM Tris-HCl pH 8.5, 10 mM MgCl2, 1 mM DTT. (Dilute 10× stock by 1:10 and add 100 μL 1M DTT per 100 mL prior to assay). • Diethanolamine Buffer: 1 M diethanolamine pH 9.8, 0.5 mM MgCl2. • Stop Solution: 1 M NaOH. • MCM2 was expressed and purified in-house and used in the assay at a final assay concentration of 436 ng/well. • Cdc7/ASK is purchased from commercial suppliers and used in the assay at a final assay concentration of 37.97 ng/well or 20.63 nM. • ATP used as a final assay concentration of 2 μM. • Primary Antibody: Rabbit anti-Phospho MCM2 (S53 Antibody (BL3353)), is purchased from commercial suppliers at 0.2 mg/mL and used at a final assay concentration by diluting 1:800 in TBS. • Secondary Antibody: Anti-Rabbit/AP Antibody is supplied is purchased from commercial suppliers at 1 mg/mL and used at a final assay concentration by diluting 1:2000 in TBS. • Development Reagent: Dissolve one 20 mg PNPP tablet (Sigma, product N2765, 20 mg per tablet) per 20 mL diethanolamine Buffer (or one 5 mg PNPP tablet per 5 mL diethanolamine buffer). Cover in foil and leave shaking on a roller shaker at room temperature for up to an hour to dissolve. Methods • 1. Add 20 μL 1× working stock of Substrate (MCM2) in TBS to all wells of a clear, 384 well, Nickel-chelate microplate to give a final concentration of 250 ng/well. Incubate at room temperature for at least 1 hour. Plates can be pre-coated for 1 hour and stored at 4° C. for up to 8 days. • 2. Wash with TBS+0.05% Tween 20 (80 μL x 3). • 3. Add 2 μL 10× test compounds, including the positive control, in 40% DMSO/water to ‘test’ wells. Add 2 μL 40% DMSO/water to ‘control’ and ‘blank’ wells. The final DMSO concentration will be 4%. • 4. Add 13 μL CDCl7/ASK Kinase (1.5× stock) in Kinase Reaction Buffer to ‘test’ and ‘control’ wells to give a final concentration of […]. Add 13 μL Kinase Reaction Buffer to ‘blank’ wells. • 5. Add 5 μL ATP (4× stock) in Kinase Reaction Buffer to all wells to give a final concentration of 2 μM. • 6. Incubate at room temperature for 90 minutes. • 7. Wash with TBS+0.05% Tween 20 (80 μL x 3). • 8. Add 20 μL 1× working solution of Primary Antibody in TBS to all wells. Incubate at room temperature for 30 minutes. • 9. Wash with TBS+0.05% Tween 20 (80 μL x 3). • 10. Add 20 μL 1× working solution of Secondary Antibody in TBS to all wells. Incubate at room temperature for 30 minutes. • 11. Wash with TBS+0.05% Tween 20 (80 μL x 3). • 12. Add 20 μL 1× Development Reagent to all wells. • 13. Incubate at room temperature for 2 hours. Stop the reaction by adding 20 μL Stop Solution to all wells and record Absorbance on a Pherastar plate reader.
Percentage inhibition values were calculated from absorbance values, using the no compound (DMSO) and no enzyme control values as 0% and 100% inhibition, respectively. IC50 determination was performed with ExcelFit software (IDBS) using curve fit 205. Z′ factors were determined for each plate tested and were all above 0.5.

Chain of Cdc7 (O00311 whole entry): as the sequence (O00311 whole entry) above
Chain of Cdc7 (Q9UBU7 whole entry partner): as the sequence (Q9UBU7 whole entry partner) above

EC50 (Cdc7) [nM] | IC50 (Cdc7/ASK) [nM] | SMILES
2000 | 3.16 | Cc1ncsc1-c1nc(C2CCNCC2)c(Cl)c(=O)[nH]1 [Compound 2, 5-chloro-2-(4-methylthiazol-5-yl)-4-(4-piperidyl)-1H-pyrimidin-6-one]
331 | 30.2 | Cc1ncsc1-c1nc(C2CCOCC2)c(F)c(=O)[nH]1 [Compound 8, 5-fluoro-2-(4-methylthiazol-5-yl)-4-tetrahydropyran-4-yl-1H-pyrimidin-6-one]
3630 | 363 | Cc1ncoc1-c1nc(C2CCOCC2)c(Cl)c(=O)[nH]1 [Compound 12, 5-chloro-2-(4-methyloxazol-5-yl)-4-tetrahydropyran-4-yl-1H-pyrimidin-6-one]
1100 | 33.1 | CCc1ncsc1-c1nc(C2CCOCC2)c(Cl)c(=O)[nH]1 [Compound 13, 5-chloro-2-(4-ethylthiazol-5-yl)-4-tetrahydropyran-4-yl-1H-pyrimidin-6-one]
1740 | 37.2 | CCc1[nH]ncc1-c1nc(C2CCOCC2)c(Cl)c(=O)[nH]1 [Compound 15, 5-chloro-2-(5-ethyl-1H-pyrazol-4-yl)-4-tetrahydropyran-4-yl-1H-pyrimidin-6-one]
3890 | 3.31 | Cc1ncsc1-c1nc(C2CCN(C(=O)c3cc(C)n(C)n3)CC2)c(Cl)c(=O)[nH]1 [Compound 23, 5-chloro-4-[1-(1,5-dimethylpyrazole-3-carbonyl)-4-piperidyl]-2-(4-methylthiazol-5-yl)-1H-pyrimidin-6-one]
447 | 4.79 | Cc1cc(C(=O)N2CCC(c3nc(-c4scnc4C)[nH]c(=O)c3Cl)CC2)no1 [Compound 25, 5-chloro-4-[1-(5-methylisoxazole-3-carbonyl)-4-piperidyl]-2-(4-methylthiazol-5-yl)-1H-pyrimidin-6-one]
158 | 3.16 | Cc1ncsc1-c1nc(N2CCC(O)CC2)c(Cl)c(=O)[nH]1 [Compound 29, 5-chloro-4-(4-hydroxy-1-piperidyl)-2-(4-methylthiazol-5-yl)-1H-pyrimidin-6-one]
251 | 3.47 | Cc1ncsc1-c1nc(N2CCC(C)CC2)c(Cl)c(=O)[nH]1 [Compound 30, 5-chloro-4-(4-methyl-1-piperidyl)-2-(4-methylthiazol-5-yl)-1H-pyrimidin-6-one]
85.1 | 3.63 | Cc1ncsc1-c1nc(N2CCNC(C(F)(F)F)C2)c(Cl)c(=O)[nH]1 (centres unmarked) [Compound 31, 5-chloro-2-(4-methylthiazol-5-yl)-4-[3-(trifluoromethyl)piperazin-1-yl]-1H-pyrimidin-6-one]
263 | 8.71 | Cc1ncsc1-c1nc(N2CCN[C@H](C)C2)c(Cl)c(=O)[nH]1 [Compound 32, 5-chloro-4-[(3R)-3-methylpiperazin-1-yl]-2-(4-methylthiazol-5-yl)-1H-pyrimidin-6-one]
100 | 2.69 | Cc1ncsc1-c1nc(N2CCC(CO)CC2)c(Cl)c(=O)[nH]1 [Compound 33, 5-chloro-4-[4-(hydroxymethyl)-1-piperidyl]-2-(4-methylthiazol-5-yl)-1H-pyrimidin-6-one]
24 | 1.41 | Cc1ncsc1-c1nc(N2CCCC(F)(F)C2)c(Cl)c(=O)[nH]1 [Compound 35, 5-chloro-4-(3,3-difluoro-1-piperidyl)-2-(4-methylthiazol-5-yl)-1H-pyrimidin-6-one]
158 | 5.89 | Cc1ncsc1-c1nc(N2CCCC(CO)C2)c(Cl)c(=O)[nH]1 (centres unmarked) [Compound 36, 5-chloro-4-[3-(hydroxymethyl)-1-piperidyl]-2-(4-methylthiazol-5-yl)-1H-pyrimidin-6-one]
110 | 3.31 | Cc1ncsc1-c1nc(N2CCN[C@@H](C)C2)c(Cl)c(=O)[nH]1 [Compound 37, 5-chloro-4-[(3S)-3-methylpiperazin-1-yl]-2-(4-methylthiazol-5-yl)-1H-pyrimidin-6-one]
83.2 | 2.29 | Cc1ncsc1-c1nc(N2CCNCC2)c(Cl)c(=O)[nH]1 [Compound 38, 5-chloro-2-(4-methylthiazol-5-yl)-4-piperazin-1-yl-1H-pyrimidin-6-one]
